Source: patent publication US11406620B2, “Use of carbamate compound for preventing or treating diseases associated with increase in late sodium current” (SK BIOPHARMACEUTICALS CO., LTD., priority 2017, dated 2022)

Assays:
[1] = molecular target: human recombinant sodium ion channel Nav1.5 (hNav1.5), late current (Homo sapiens, UniProt Q14524); test: Whole cell patch clamp, late sodium current of hNav1.5 in HEK293 cells (veratridine-activated)
Method: (§1) To study the […] Nav1.5 channel, a cell line stably expressing […] (Gene ID: 6331, https://www.ncbi.nlm.nih.gov/gene/6331) encoding a human Nav1.5 channel in HEK293 cells was used.
(§2) Pulse-protocol uses a protocol that gives a −15 mV stimulus for 385 ms at a holding voltage of −120 mV, and then returns to a holding voltage of −120 mV, and the current generated with the −15 mV stimulus (fast current) and the current just before returning to −120 mV (late current) was measured.
(§3) The composition of the external solution used in the experiment is as follows: 137 mM NaCl, 4 mM KCl, 1.8 mM CaCl2) mM, 1 mM MgCl2, 10 mM HEPES, 11 mM D-Glucose, pH 7.4 (NaOH), 280 mOsm.
(§4) The composition of the internal solution used in the experiment is as follows: 130 mM CsCl, 1 mM MgCl2, 7 mM NaCl, 5 mM HEPES, 5 mM EGTA, pH 7.2 (CsOH), 270 mOsm.

[2] = molecular target: hNav1.5 sodium channel, late current (Homo sapiens, UniProt Q14524); test: as above; conditions: human, pH 7.4
Method: as §1, §2, §3, §4

[3] = molecular target: hNav1.5 sodium channel, fast current (Homo sapiens, UniProt Q14524); test: Whole cell patch clamp, fast sodium current of hNav1.5 in HEK293 cells; conditions: pH 7.4
Method: as §1, §2, §3, §4

[4] = HEK293 cells stably expressing human Nav1.5 (SCN5A)

hNav1.5 sodium channel, late current, sequence (Q14524 whole entry): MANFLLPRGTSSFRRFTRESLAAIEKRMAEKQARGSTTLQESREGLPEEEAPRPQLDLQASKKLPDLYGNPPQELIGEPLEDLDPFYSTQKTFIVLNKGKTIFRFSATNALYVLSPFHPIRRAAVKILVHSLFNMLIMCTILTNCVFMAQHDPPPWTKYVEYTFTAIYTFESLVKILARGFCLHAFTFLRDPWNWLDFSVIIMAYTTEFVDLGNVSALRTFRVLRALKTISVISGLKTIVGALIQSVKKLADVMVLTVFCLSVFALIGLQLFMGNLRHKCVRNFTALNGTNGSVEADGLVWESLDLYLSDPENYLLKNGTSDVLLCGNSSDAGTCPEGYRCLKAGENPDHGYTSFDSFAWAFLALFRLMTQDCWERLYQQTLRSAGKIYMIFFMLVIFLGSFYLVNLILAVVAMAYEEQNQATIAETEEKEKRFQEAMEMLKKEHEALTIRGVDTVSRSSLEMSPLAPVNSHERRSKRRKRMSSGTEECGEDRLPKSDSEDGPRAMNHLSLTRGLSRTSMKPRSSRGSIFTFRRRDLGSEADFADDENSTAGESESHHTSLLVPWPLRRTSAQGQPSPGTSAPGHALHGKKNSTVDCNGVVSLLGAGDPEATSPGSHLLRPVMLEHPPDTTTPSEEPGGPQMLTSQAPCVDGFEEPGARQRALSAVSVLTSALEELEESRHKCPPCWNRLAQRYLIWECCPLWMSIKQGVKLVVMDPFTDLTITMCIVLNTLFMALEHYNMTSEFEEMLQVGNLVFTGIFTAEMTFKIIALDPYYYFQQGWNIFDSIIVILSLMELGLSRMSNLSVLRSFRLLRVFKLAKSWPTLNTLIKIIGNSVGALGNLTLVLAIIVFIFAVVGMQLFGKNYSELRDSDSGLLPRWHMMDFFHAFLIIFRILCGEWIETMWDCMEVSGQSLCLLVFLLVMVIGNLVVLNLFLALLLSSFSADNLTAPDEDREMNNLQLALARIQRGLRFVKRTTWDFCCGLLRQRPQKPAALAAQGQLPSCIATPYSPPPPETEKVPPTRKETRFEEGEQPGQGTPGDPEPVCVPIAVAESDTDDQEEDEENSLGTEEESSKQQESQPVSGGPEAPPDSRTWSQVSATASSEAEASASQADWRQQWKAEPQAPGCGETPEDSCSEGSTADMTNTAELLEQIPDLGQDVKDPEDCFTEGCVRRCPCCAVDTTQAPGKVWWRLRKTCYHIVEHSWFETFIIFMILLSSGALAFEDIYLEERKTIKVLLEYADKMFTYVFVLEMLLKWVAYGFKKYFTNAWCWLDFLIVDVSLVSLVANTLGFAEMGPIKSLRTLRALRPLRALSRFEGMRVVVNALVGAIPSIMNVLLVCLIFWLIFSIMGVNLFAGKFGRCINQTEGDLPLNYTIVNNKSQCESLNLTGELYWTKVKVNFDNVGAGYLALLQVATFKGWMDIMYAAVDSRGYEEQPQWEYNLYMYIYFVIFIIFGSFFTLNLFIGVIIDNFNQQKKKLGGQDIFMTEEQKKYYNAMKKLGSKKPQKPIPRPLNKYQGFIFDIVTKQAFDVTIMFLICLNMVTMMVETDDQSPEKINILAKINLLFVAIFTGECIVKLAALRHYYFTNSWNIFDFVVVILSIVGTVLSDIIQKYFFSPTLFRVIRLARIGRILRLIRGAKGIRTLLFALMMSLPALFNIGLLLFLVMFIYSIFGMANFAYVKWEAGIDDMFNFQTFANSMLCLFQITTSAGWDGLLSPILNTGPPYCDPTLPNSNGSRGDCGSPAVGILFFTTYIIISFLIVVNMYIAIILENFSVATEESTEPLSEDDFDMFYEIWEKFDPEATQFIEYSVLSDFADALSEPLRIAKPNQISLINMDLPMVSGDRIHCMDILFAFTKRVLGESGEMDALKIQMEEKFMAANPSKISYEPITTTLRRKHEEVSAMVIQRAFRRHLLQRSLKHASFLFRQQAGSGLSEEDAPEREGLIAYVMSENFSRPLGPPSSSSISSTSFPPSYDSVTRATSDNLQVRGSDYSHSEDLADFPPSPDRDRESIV
hNav1.5 sodium channel, fast current, sequence (Q14524 whole entry): as above

Compound	Inhibition ratio of late current/fast current ([1]; 10 μM)	Inhibition ratio of late current/fast current ([1]; 30 μM)	Inhibition ratio of late current/fast current ([1]; 100 μM)	Inhibition ratio of late current/fast current ([1]; 300 μM)	inhibition at 10 μM [2, 4]	inhibition at 30 μM [2, 4]	inhibition at 100 μM [2, 4]	inhibition at 300 μM [2, 4]	inhibition at 10 μM [3, 4]	inhibition at 30 μM [3, 4]	inhibition at 100 μM [3, 4]	inhibition at 300 μM [3, 4]	other results
NC(=O)N1c2ccccc2C=Cc2ccccc21 [Carbamazepine]	2.6	2.9	2.7	1.7	20.4%	36.2%	65.4%	86.9%	7.7%	12.3%	24.5%	51.4%	–
Nc1nnc(-c2cccc(Cl)c2Cl)c(N)n1 [Lamotrigine, lamotrigine]	1.3	2.0	2.0	1.6	10.7%	32.9%	56.7%	80.1%	8.3%	16.6%	29%	51.2%	–
NC(=O)O[C@@H](Cn1ncnn1)c1ccccc1Cl [Test compound, carbamic acid (R)-1-(2-chlorophenyl)-2-tetrazol-2-yl-ethyl ester]	3.8	4.2	2.6	1.9	–	–	–	–	–	–	–	–	Selectivity of inhibition of late versus fast sodium current (in words) ([1]; at a concentration in the drug effective concentration range, compared to the comparative compounds): inhibited the late sodium current more selectively than the fast sodium current; inhibition at 10 μM [2]: 11.4%; inhibition at 30 μM [2]: 24%; inhibition at 100 μM [2]: 33.9%; inhibition at 300 μM [2]: 49.8%; inhibition at 10 μM [3]: 3%; inhibition at 30 μM [3]: 5.7%; inhibition at 100 μM [3]: 13%; inhibition at 300 μM [3]: 26.2%
